Results: patent US20150291565A1, “INDOLE COMPOUNDS AND THEIR USE AS ANTIMICROBIALS” (Memorial Sloan-Kettering Cancer Center, priority 2012, published 2015)
Converted amounts (≈) assume the structure as drawn. “And” between values parts separate entries of the source, which are not always exact repeats. Equal values may be shown once. Read-outs that look alike come from different tables or passages of the source.

How the values were obtained:
C. albicans ATCC 14053 = experiment: Broth dilution MIC, C. albicans ATCC 14053; type: cell-based; conditions: Candida albicans, ATCC14053; Table 1; range 64 down to 0.12 μg/ml
How it was run: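 Broth microdilution per NCCLS M7-A6, 1:2 serial dilutions from a 256 μg/ml working stock. C. albicans inoculum set to 70–75% transmittance at 530 nm, diluted 1/500 in RPMI+MOPS, incubated 18 h at 35° C; growth read at 650 nm and confirmed visually.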

E. coli ECM 1694 = experiment: Broth dilution MIC, E. coli ECM 1694; type: cell-based; conditions: Escherichia coli
E. coli (ATCC 25922) = experiment: Septicemia survival model in neutropenic CD1 mice, E. coli; type: in vivo
[1] = system: S. pneumoniae ATCC 6301 (PSSP); experiment: Broth dilution MIC, S. pneumoniae ATCC 6301; type: cell-based; conditions: Streptococcus pneumoniae
MRSA [2] = experiment: Disk diffusion assay, zone of inhibition, MRSA; type: cell-based, Staphylococcus aureus
M. tuberculosis = experiment: Testing against M. tuberculosis; type: cell-based; conditions: recent testing
S. aureus BAA-39 (MDR) = experiment: Broth dilution MIC, S. aureus BAA-39; type: cell-based; conditions: for MIC: Staphylococcus aureus, BAA39
[3] = system: E. faecium ATCC 700221 (VRE); experiment: Broth dilution MIC, E. faecium ATCC 700221; type: cell-based
P. aeruginosa ATCC 9027 = experiment: Broth dilution MIC, P. aeruginosa ATCC 9027; type: cell-based; conditions: Pseudomonas aeruginosa
[4] = system: S. pneumoniae ATCC 700674 (PRSP); experiment: Broth dilution MIC, S. pneumoniae ATCC 700674; type: cell-based; conditions: Streptococcus pneumoniae
[5] = system: S. pneumoniae (ATCC 6303); experiment: Thigh infection model in neutropenic CD1 mice, S. pneumoniae; conditions: 24 hours; for Log reduction: vs vehicle
[6] = system: methicillin-resistant S. aureus (ATCC 33591); experiment: Thigh infection model in neutropenic CD1 mice, MRSA; conditions: 24 hours; for Log reduction: vs vehicle
[7] = system: S. aureus ATCC 29213 (MSSA); experiment: Broth dilution MIC, S. aureus ATCC 29213; type: cell-based; conditions: Staphylococcus aureus
K. pneumoniae ATCC 13883 = experiment: Broth dilution MIC, K. pneumoniae ATCC 13883; type: cell-based; conditions: Klebsiella pneumoniae
M. smegmatis Mc2155 = experiment: MIC against M. smegmatis Mc2155; type: cell-based; conditions: Mycolicibacterium smegmatis
[8] = system: M. smegmatis (mc2155) Beta-Galactosidase (B-gal) reporter gene; experiment: HTS screen with Beta-Galactosidase reporter gene in M. smegmatis; type: cell-based; conditions: Mycolicibacterium smegmatis
MRSA [9] = experiment: MIC against MRSA; type: cell-based; conditions: Staphylococcus aureus
[10] = 10 mg/kg BID IP, listed as 356313, 10 mg/kg
[11] = 20 mg/kg BID IP, listed as 356313, 20 mg/kg

c1cc(C2=NCCN2)ccc1Nc1ccc(-c2cc3ccc(C4=NCCN4)cc3[nH]2)cc1 [SKI-1]
MIC (C. albicans ATCC 14053): 1 µg/mL (≈ 2.38 µM) | MIC (E. coli ECM 1694; ECM1694, Table 1, range 64 down to 0.12 μg/ml, read-out: MIC E. coli ECM 1694): 0.25 µg/mL (≈ 0.595 µM) | MIC (E. coli ECM 1694; ECM1694, Table 2, broth dilution MIC in ug/ml, read-out: MIC E. coli ECM 1693): 0.25 µg/mL (≈ 0.595 µM) | MIC (E. coli ECM 1694; ECM1694, Table 3, starting at 4 μg/ml, read-out: MIC E. coli ECM 1694): 0.5 µg/mL (≈ 1.19 µM) | MIC (E. coli ECM 1694; ECM1694, Table 4, broth dilution MIC according to CLSI standards (NAEJA), read-out: MIC E. coli ECM 1694): 0.25 µg/mL (≈ 0.595 µM) | Day by which all the mice died (E. coli (ATCC 25922); 10 mg/kg): ≤ 3 days | Percent Survival Day 1 (E. coli (ATCC 25922); 10 mg/kg BID IP): 100% | Percent Survival Day 2 (E. coli (ATCC 25922); 10 mg/kg BID IP): 60% | Percent Survival Day 3 (E. coli (ATCC 25922); 10 mg/kg BID IP): 0% | Percent Survival Day 4 (E. coli (ATCC 25922); 10 mg/kg BID IP): 0% | Percent Survival Day 5 (E. coli (ATCC 25922); 10 mg/kg BID IP): 0% | Percent Survival Day 6 (E. coli (ATCC 25922); 10 mg/kg BID IP): 0% | Percent Survival Day 7 (E. coli (ATCC 25922); 10 mg/kg BID IP): 0% | Day by which all the mice died (E. coli (ATCC 25922); 20 mg/kg): ≤ 4 days | Percent Survival Day 1 (E. coli (ATCC 25922); 20 mg/kg BID IP): 100% | Percent Survival Day 2 (E. coli (ATCC 25922); 20 mg/kg BID IP): 80% | Percent Survival Day 3 (E. coli (ATCC 25922); 20 mg/kg BID IP): 60% | Percent Survival Day 4 (E. coli (ATCC 25922); 20 mg/kg BID IP): 0% | Percent Survival Day 5 (E. coli (ATCC 25922); 20 mg/kg BID IP): 0% | Percent Survival Day 6 (E. coli (ATCC 25922); 20 mg/kg BID IP): 0% | Percent Survival Day 7 (E. coli (ATCC 25922); 20 mg/kg BID IP): 0% | MIC ([1]; ATCC6301, Table 1, range 64 down to 0.12 μg/ml, read-out: MIC S. pneumoniae ATCC 6301): ≤ 0.12 µg/mL | MIC ([1]; ATCC6301, Table 2, broth dilution MIC in ug/ml, read-out: MIC S pneumonia ATCC 6301 PSSP): 0.12 µg/mL (≈ 0.285 µM) | MIC ([1]; ATCC6301, Table 3, starting at 4 μg/ml, read-out: MIC S. pneumoniae ATCC 6301): 0.12 µg/mL (≈ 0.285 µM) | MIC ([1]; ATCC6301, Table 4, broth dilution MIC according to CLSI standards (NAEJA), read-out: MIC PSSP S. pneumoniae ATCC 6301): 0.12 µg/mL (≈ 0.285 µM) | Average Zone Size MRSA (MRSA [2]): 11 | Zone Size MRSA (MRSA [2]; disk diffusion zone of inhibition): 11 mm | Activity against M. tuberculosis (M. tuberculosis): comparable to that observed for M. smegmatis | MIC (S. aureus BAA-39 (MDR); Table 1, range 64 down to 0.12 μg/ml, read-out: MIC S. aureus BAA-39): 0.25 µg/mL (≈ 0.595 µM) | MIC (S. aureus BAA-39 (MDR); Table 2, broth dilution MIC in ug/ml, read-out: MIC S aureus BAA-39 MDR): 0.25 µg/mL (≈ 0.595 µM) | MIC (S. aureus BAA-39 (MDR); Table 4, broth dilution MIC according to CLSI standards (NAEJA), read-out: MIC MDR S. aureus BAA-39): 0.25 µg/mL (≈ 0.595 µM) | MIC S. aureus BAA-39 (S. aureus BAA-39 (MDR); Table 3, starting at 4 μg/ml): 0.25 µg/mL (≈ 0.595 µM) | MIC ([3]; Enterococcus faecium, Table 1, range 64 down to 0.12 μg/ml, read-out: MIC E. faecium ATCC 700221): ≤ 0.12 µg/mL | MIC ([3]; Enterococcus faecium, Table 3, starting at 4 μg/ml, read-out: MIC E. faecium ATCC 700221): 0.06 µg/mL (≈ 0.143 µM) | MIC ([3]; Enterococcus faecium, Table 4, broth dilution MIC according to CLSI standards (NAEJA), read-out: MIC VRE E. faecium ATCC 700221): 0.03 µg/mL (≈ 0.0713 µM) | MIC ([3]; Table 2, broth dilution MIC in ug/ml, read-out: MIC E faecium ATCC 700221 VRE): 0.06 µg/mL (≈ 0.143 µM) | MIC (P. aeruginosa ATCC 9027; ATCC 9026 / ATCC 9027, Table 2, broth dilution MIC in ug/ml, read-out: MIC P aeruginosa ATCC 9026): 1 µg/mL (≈ 2.38 µM) | MIC (P. aeruginosa ATCC 9027; ATCC9027, Table 1, range 64 down to 0.12 μg/ml, read-out: MIC P. aeruginosa ATCC 9027): 1 µg/mL (≈ 2.38 µM) | MIC (P. aeruginosa ATCC 9027; ATCC9027, Table 4, broth dilution MIC according to CLSI standards (NAEJA), read-out: MIC P. aeruginosa ATCC 9027): 0.5 µg/mL (≈ 1.19 µM) | MIC ([4]; Table 1, range 64 down to 0.12 μg/ml, read-out: MIC S. pneumoniae ATCC 700674): ≤ 0.12 µg/mL | MIC ([4]; Table 2, broth dilution MIC in ug/ml, read-out: MIC S pneumonia ATCC 700674 PRSP): 0.12 µg/mL (≈ 0.285 µM) | MIC ([4]; Table 3, starting at 4 μg/ml, read-out: MIC S. pneumoniae ATCC 700674): 0.12 µg/mL (≈ 0.285 µM) | MIC ([4]; Table 4, broth dilution MIC according to CLSI standards (NAEJA), read-out: MIC PRSP S. pneumoniae ATCC 700674): 0.03 µg/mL (≈ 0.0713 µM) | Mean bacterial tissue burden (log10/thigh) ([5]; 10 mg/kg BID IP): 6.7143 log10/thigh | Log reduction [5, 10]: 2.40 Log and 2.3984 Log | Mean bacterial tissue burden (log10/thigh) ([5]; 20 mg/kg BID IP): 5.6260 log10/thigh | Log reduction [5, 11]: 3.49 Log and 3.4867 Log | Mean bacterial tissue burden (log10/thigh) ([6]; 10 mg/kg BID IP): 8.3106 log10/thigh | Log reduction [6, 10]: 0.14 Log and 0.1382 Log | Mean bacterial tissue burden (log10/thigh) ([6]; 20 mg/kg BID IP): 7.7428 log10/thigh | Log reduction [6, 11]: 0.71 Log and 0.7060 Log | MIC ([7]; Table 3, starting at 4 μg/ml, read-out: MIC S. aureus ATCC 29213): 0.25 µg/mL (≈ 0.595 µM) | MIC ([7]; Table 1, range 64 down to 0.12 μg/ml, read-out: MIC S. aureus ATCC 29213): 0.25 µg/mL (≈ 0.595 µM) | MIC ([7]; Table 2, broth dilution MIC in ug/ml, read-out: MIC S aureus ATCC 29213 MSSA): 0.25 µg/mL (≈ 0.595 µM) | MIC ([7]; Table 4, broth dilution MIC according to CLSI standards (NAEJA), read-out: MIC MSSA S. aureus ATCC 29213): 0.25 µg/mL (≈ 0.595 µM) | MIC (K. pneumoniae ATCC 13883; ATCC13883, Table 1, range 64 down to 0.12 μg/ml, read-out: MIC K. pneumoniae ATCC 13883): 1 µg/mL (≈ 2.38 µM) | MIC (K. pneumoniae ATCC 13883; ATCC13883, Table 2, broth dilution MIC in ug/ml, read-out: MIC K pneumonia ATCC 13883): 1 µg/mL (≈ 2.38 µM) | MIC (K. pneumoniae ATCC 13883; ATCC13883, Table 4, broth dilution MIC according to CLSI standards (NAEJA), read-out: MIC K. pneumoniae ATCC 13883): 0.5 µg/mL (≈ 1.19 µM) | MIC (M. smegmatis Mc2155): 0.2 µM (≈ 0.0841 µg/mL) | IC50 ([8]; suffix 250 not explained, read-out: IC50_250): 790 nM | IC50 ([8]; suffix 251 not explained, read-out: IC50_251): 730 nM | IC50 ([8]; suffix 381 not explained, read-out: IC50_381): 2540 nM | IC50 ([8]; suffix 569 not explained, read-out: IC50_569): 3670 nM | MIC (MRSA [9]): 9.2 µM (≈ 3.87 µg/mL)
